One assay deals with T1, tyrosinase (Homo sapiens, UniProt P14679).
T1 construct: endogenous in cells; host or cells: human melanocytes
T1 sequence (P14679 19-529): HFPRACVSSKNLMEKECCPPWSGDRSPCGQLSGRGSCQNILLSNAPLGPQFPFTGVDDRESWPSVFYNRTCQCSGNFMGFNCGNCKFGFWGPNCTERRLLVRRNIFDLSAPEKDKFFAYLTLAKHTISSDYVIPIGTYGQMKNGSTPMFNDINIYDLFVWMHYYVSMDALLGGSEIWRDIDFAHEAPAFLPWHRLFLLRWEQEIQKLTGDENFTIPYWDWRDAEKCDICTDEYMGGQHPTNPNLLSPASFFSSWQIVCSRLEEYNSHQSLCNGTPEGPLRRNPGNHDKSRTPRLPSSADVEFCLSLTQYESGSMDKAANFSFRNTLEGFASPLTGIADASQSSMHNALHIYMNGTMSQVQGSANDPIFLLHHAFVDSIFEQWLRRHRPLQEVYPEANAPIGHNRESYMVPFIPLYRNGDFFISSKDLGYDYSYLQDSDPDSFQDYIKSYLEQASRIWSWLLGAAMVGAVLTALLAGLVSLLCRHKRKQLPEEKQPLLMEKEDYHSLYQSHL
Briefly: Residual tyrosinase activity in human melanocytes. The class given is cell-based. To be noted: 0.03%; positive control. On the procedure:
(§1) Principle: Human melanocytes are seeded and placed in contact with the GGP for 5 days. After incubation, the residual tyrosinase activity and total melanin content were measured in cell homogenates, and then divided by the number of cells (melanin) or to the protein amount (tyrosinase).

The subject of the next assay is human melanocytes. The experiment in a line: Melanin content of human melanocytes. The class given is cell-based. The following applies: 0.03%; positive control. On the procedure:
as §1

Assay [1] can be described thus: ORAC test (Oxygen-Radical Absorbance Capacity): fluorescein degradation by peroxyl radicals. Type of assay: biochemical. The following applies: positive control, 10μ. The text has this: Principle: the ORAC test (“Oxygen-Radical Absorbance Capacity”) measures degradation by the oxidative way of a fluorescent molecule (fluorescein). Degradation of fluorescein by peroxyl radicals generated by AAPH (2,2′-azobis (2-amidinopropane) dichloride) induces a decrease in fluorescence measured by a spectrofluorometer during a degradation kinetic.
An antioxidant protects this fluorescein against this radical degradation. The decrease in fluorescence will be smaller and slower in the presence of the antioxidant than in its absence. The comparison between the parameters of the two kinetics makes it possible to calculate a percentage of protection against free radical degradation.

The test system of the next assay is fibroblasts (FHN). The experiment in a line: Intracellular peroxide level (DCFH-DA probe) in fibroblasts after SIPS. Type of assay: cell-based, human. To be noted: 120 ppm. On the procedure: Principle: Fibroblasts at confluence contacted or not with the GGP for several days, are subjected to oxidative stress by hydrogen peroxide in the presence or absence of the GGP. This stress is intended to induce premature senescence in cells.
After this initial stress, the cells were detached from the support and returned to culture at low density until confluence. They are then contacted or not with the compound of the invention for 24 hours. At this stage, each set of cultures (with or without the tested compounds) is divided into 2 lots. A first batch (not stressed) is evaluated directly for its concentration of intracellular peroxides (using the probe DCFH-DA). Simultaneously, the other batch (stressed) undergoes a second stress by hydrogen peroxide (weaker than the first) just before being evaluated in the same way regarding the concentration of intracellular peroxides.
The amount of fluorescence measured with this probe is directly proportional to the amount of peroxides present in the cells.

The next assay concerns presenescent fibroblasts. Briefly: Mitochondrial membrane potential of presenescent fibroblasts (dye ratio λ520/λ590). To be noted: 120 ppm. The class given is cell-based. The text has this:
It is possible to measure the membrane potential through a specific membrane dye. Depending on the level of the membrane potential, this dye is rather present as monomer (emission fluorescence at 520 nm) or rather in the multimetric form (fluorescence emission at 590 nm). High membrane potential promotes a multimetric form.
The ratio λ520/λ590 varies inversely with the membrane potential. The lower the ratio is, the higher the membrane potential is. The increase in the ratio thus reflects a decrease in membrane potential. The ratio λ520/λ590 for young and proliferating cells is 2.97+/−0.17.
[…] After this period, the membrane potential of half of the cultures was measured.
The other half of the cultures underwent an oxidative stress (hydrogen peroxide) before measuring their membrane potential.

For another assay, the system named is human dermal fibroblasts. The experiment in a line: Senescence associated β-galactosidase activity in fibroblasts after oxidising stress (FDG fluorimetry). The class given is cell-based. The following applies: 120 ppm; positive control. The protocol:
Principle: Proliferative human dermal fibroblasts were contacted or not with the GGP for 72 hours in a growth medium. After this first incubation, the cells were subjected for 5 days to an oxidative stress daily, one hour each, in a basic medium, common to all cultures. This stress is known to create a SIPS and to induce a strong increase in β-galactosidase activity in the stressed culture compared to an unstressed culture. Between two stress cells are returned to the growth medium with or without the substance tested. After the fifth stress, β-galactosidase activity is evaluated.
Evaluation of β-galactosidase activity is done after fixing the layers. They are put in contact with a substrate of β-galactosidase nonfluorescent FDG (fluorescein di-β-galactopyranoside), which will release a fluorescent compound upon hydrolysis by β-galactosidase. The emitted fluorescence is quantified in a fluorometer. It will increase with the amount of senescent cells present in culture. The relative activity of β-galactosidase thus found is 2974+/−957 UFA/million cells in a proliferative culture and increases by a factor 5 (p<0.01) in a culture little to not proliferative.

For the next assay, the system named is collagen I. The experiment in a line: Collagen I synthesis in presenescent fibroblasts (immunofluorescence, image analysis). Type of assay: cell-based, human. The following applies: 10^−6%; positive control. The protocol:
Principle: The collagen I synthesis was monitored in pre-senescent human dermal fibroblasts. These cells were cultured for 11 days with the GGP in a growth medium. Following this incubation, the cell layers were fixed and labeled by immunofluorescence, to visualize the network of collagen I and to quantify by image analysis on photographs. In parallel, quantification was performed on proliferating cells.

A further assay deals with hyaluronic acid. The experiment in a line: Hyaluronic acid synthesis in human fibroblasts. The class given is cell-based. To be noted: 10^−6%; positive control. On the procedure:
Principle: Human dermal fibroblasts were grown in plate for 24 hours. The cells are then placed in contact or not with GGP for 24 hours. Culture supernatants were collected and assayed for the amount of hyaluronic acid (HA) is then divided by the number of cells present on the layer. TGF-β1 is used as a positive control.

[2] abbreviates: SIPS fibroblasts subjected to a second oxidant stress.

The results in this text go back to patent US9126060B2, “Cosmetic use of geranylgeranyl-2-propanol” (SEDERMA, priority 2010, dated 2015).

With `OC[C@H]1O[C@@H](Oc2ccc(O)cc2)[C@H](O)[C@@H](O)[C@@H]1O` [Arbutine, reference compound], the “Change (%) of tyrosinase activity vs control” value at tyrosinase is on record as −33%. Also, the “Change (%) of melanin content vs control” value in the assay with human melanocytes was −40%.

Take `Cc1c(C)c2c(c(C)c1O)CCC(C)(C(=O)O)O2` (stereo not drawn) [Trolox, reference compound]: the “% of protection” value in assay [1] is listed as “Positive control = Trolox 10μ = 94% (p < 0.01)”. For the same compound, the “% Change/Control of endogen peroxides” value in the assay on fibroblasts (FHN) (setting [2]) is on record as −85%; p < 0.01; with fibroblasts (FHN) (after SIPS, not stressed again), −43%; p < 0.01. Besides, the Endogen peroxides in the assay with fibroblasts (FHN) (setting [2]) is 158 +/− 7 UFA/million of cells; in the assay with fibroblasts (FHN) (after SIPS, not stressed again), 57.5 +/− 3.8 UFA/million of cells. In the assay on presenescent fibroblasts (no stress), the “% of protection of the respiration potential” value is “+44%; nsd”. Besides, the “ΔΨ loss with regard to non stressed young cells” value was 0.80 +/− 0.52 with presenescent fibroblasts (one week, no stress) and 3.18 +/− 1.16 with presenescent fibroblasts (with oxidative stress (hydrogen peroxide)). In the assay on presenescent fibroblasts (with oxidative stress), the “Improvement of the respiration potential” value is listed as “+43%; p < 0.05”. The “Change with regard to non stressed young cells” value in the assay with presenescent fibroblasts (with oxidative stress, control −100%) is on record as −57%. The “Change with regard to control (β-galactosidase)” value with human dermal fibroblasts is listed as “Positive control: Trolox 120 ppm = −45% (p < 0.05)”.

Regarding “TGF-β: TGF-β1 is used as a positive control [reference compound]”, the “collagen I synthesis, factor vs control” value in the assay with collagen I was “Positive control: TGF-β at 10^−6%: ×8.3 times”. Also, in the assay with hyaluronic acid, the “% of change of hyaluronic acid vs control” value is recorded as “Positive control: TGF-β1 à 10^−6%: +206% (p < 0.01)”.
